A short description of this test: Binding affinity to recombinant human CypD K175I mutant (44 to 207 residues) expressed in Escherichia coli cells assessed as dissociation constant by SPR analysis. Background: In SPR one partner is held on a chip, and binding of the other changes the refractive index at the surface.

In ChEMBL document CHEMBL4359930, “Discovery of novel Cyclophilin D inhibitors starting from three dimensional fragments with millimolar potencies” (Bioorg Med Chem Lett, 2019) one finds Kd data, which are given here for 20 compounds.

As usually defined, the Kd is the concentration at which binding is half-saturated. As to `Cc1onc(-c2ccncc2)c1C(=O)O`, the Kd was greater than 10000 µM.

For the compound `CCN1Cc2cc3c(cc2NCCC1=O)OCO3`, the Kd was found to be 7500 µM.

As for `O=C(NCc1ccc2c(c1)[C@@H]1C[C@H](N2)[C@H](O)CO1)C(=O)N1CCCC1`, the Kd worked out at 217 µM.

Regarding `Nc1ccc(CCNC(=O)CN2C(=O)C3C4CCC(C4)C3C2=O)cc1` (stereo not given), the Kd was greater than 200 µM.

Take `CSc1ccccc1[C@H]1CCCN1C(=O)CN(C)C(=O)NCc1ccc2c(c1)[C@H]1C[C@@H](N2)[C@H](O)CO1`: the Kd came out at 7 µM.

Turning to `CSc1ccccc1[C@H]1CCCN1C(=O)C(=O)NCc1ccc2c(c1)[C@H]1C[C@@H](N2)[C@H](O)CO1`, the dissociation constant (Kd) stood at 184 µM.

Consider `CSc1ccccc1[C@H]1CCCN1C(=O)CNC(=O)CCc1ccc2c(c1)[C@@H]1C[C@H](N2)[C@H](O)CO1`, for which the dissociation constant (Kd) was 39 µM.

For the compound `O=C(NCc1ccccn1)C(=O)NC1CCCC1`, the Kd turned out to be 1100 µM.

Regarding `CCN1Cc2cc(CNC(=O)NCC(=O)N3CCC[C@@H]3c3ccccc3SC)ccc2NCCC1=O`, the Kd turned out to be 0.18 µM.

For `CCn1nnc(NC(=O)c2ccccc2)n1`, the dissociation constant (Kd) is 3900 µM.

As for `CCN1Cc2cc(NC(=O)CN3C(=O)C4C(C3=O)[C@H]3CC[C@@H]4C3)ccc2NCCC1=O` (stereo not given in full), the dissociation constant Kd is greater than 6000 µM.

In the case of `O=C(CN1C(=O)[C@@H]2[C@@H]3CC[C@@H](C3)[C@@H]2C1=O)NCc1ccc2c(c1)[C@H]1C[C@@H](N2)[C@H](O)CO1`, the dissociation constant Kd was 0.66 µM.

Consider `CCN1Cc2cc(CCC(=O)NCCC(=O)N3CCC[C@@H]3c3ccccc3SC)ccc2NCCC1=O`, for which the dissociation constant (Kd) was 420 µM.

Regarding `CCN1Cc2cc(NC(=O)NCC(=O)N3CCC[C@@H]3c3ccccc3SC)ccc2NCCC1=O`, the Kd came to 260 µM.

Take `O=C(CN1C(=O)[C@@H]2[C@H]3CC[C@H](C3)[C@@H]2C1=O)NCc1ccc2c(c1)[C@H]1C[C@@H](N2)[C@H](O)CO1`: the dissociation constant (Kd) worked out at 1.2 µM.

Regarding `CCN1Cc2cc(CCC(=O)NCC(=O)N3CCC[C@@H]3c3ccccc3SC)ccc2NCCC1=O`, the Kd worked out at 2.3 µM.

On to `O[C@@H]1CO[C@@H]2C[C@H]1Nc1ccc(F)cc12`, for which the Kd stood at 7100 µM.

On to `O=C(O)CN1C(=O)[C@@H]2[C@@H]3CC[C@@H](C3)[C@@H]2C1=O`, for which the dissociation constant Kd is greater than 10000 µM.

For `CSc1ccccc1[C@@H]1CCCN1C(=O)C(=O)NCc1ccc2c(c1)[C@H]1C[C@@H](N2)[C@H](O)CO1`, the Kd is greater than 240 µM.

On to `O=C(NCc1ccc2c(c1)[C@H]1C[C@@H](N2)[C@H](O)CO1)C(=O)N1CCCC1`, for which the Kd was greater than 1500 µM.
